Assay results: patent US20240132521A1, “COMPOUNDS AND METHODS FOR MODULATING HER2” (Iambic Therapeutics, Inc., priority 2022, published 2024)

Columns and labels:
wtERBB2 (Her2 WT) = biological target: T1, wtERBB2 (Her2 WT) (Homo sapiens, UniProt P04626); test: HotSpot radiometric kinase activity assay, wtERBB2; conditions: biochemical activity, 30 nM wtERBB2, 10 μM 33P-ATP, 2 hours
T1 construct: purchased Reaction Biology Kin-21-497
Experimental: (§1) The purpose of the wtERBB2, ERBB2-A775_G776insYVMA (ERBB2YVMA), wtEGFR biochemical assay was to evaluate the inhibition (% inhibition and IC50 values) of the small molecule inhibitors by using the “HotSpot” radiometric kinase activity assay. HotSpot assays monitor the production of kinase substrate by the radioactive gamma phosphate of adenosine triphosphate (33P-ATP) during biochemical reactions. HotSpot assays was performed in steps upon completion of the kinase reaction: deposition of a reaction mixture aliquot onto P81 ion exchange paper, extensive washing of the aforementioned P81 paper using phosphoric acid to remove unbound radiolabeled 33P-ATP from the P81 paper, and finally visualization and quantification of the dried P81 paper utilizing a phosphoimager. […] Typical reaction solutions (10 μL, final reaction volume) contained the following buffer conditions: 20 mM Hepes (pH 7.5), 10 mM MgCl2, 1 mM EGTA, 0.01% Brij35, 0.02 mg/mL BSA, 0.1 mM Na3VO4, 2 mM DTT, 1% DMSO. The assay was primed by preparing a fresh 0.2 mg/mL solution of pEY (Sigma Cat: P7244) substrate in the reaction buffer and supplementing that solution with […] of MnCl2 as substrate cofactor (Sigma Cat: M9522). The kinase of interest was then added to the solution at the appropriate concentration (30 nM wtERBB2 from, or 20 nM ERBB2YVMA, or 4 nM wtEGFR) and gently mixed prior to delivery of compound in 100% DMSO by acoustic dispensing (Beckman Echo550). Compound, Kinase, and substrate were allowed to incubate for 20 min at room temperature prior to the initiation of the reaction by addition of 33P-ATP (PerkinElmer Cat: NEG602, final conc 10 μM). […] IC50 determinations were made from a plot of kinase activity as a function of inhibitor concentration fit to the 4-parameter IC50 equation with the enzyme concentration held constant using GraphPad Prism (San Diego).

[1] = biological target: T2, ERBB2-A775_G776insYVMA (ERBB2YVMA) (Homo sapiens, UniProt P04626, INS775YVMA); test: HotSpot radiometric kinase activity assay, ERBB2YVMA; conditions: biochemical activity, 20 nM ERBB2YVMA, 10 μM 33P-ATP, 2 hours, read-out: HER2 - YVMA IC50
T2 construct: purchased SignalChem E27-13BG
Experimental: as §1

wtEGFR = biological target: T3, wtEGFR (Homo sapiens, UniProt P00533); test: HotSpot radiometric kinase activity assay, wtEGFR; conditions: biochemical activity, 4 nM wtEGFR, 10 μM 33P-ATP, 2 hours, read-out: EGFR WT IC50
T3 construct: purchased Invitrogen PR7295B
Experimental: as §1

BaF3_HER2WT cells = BaF3_HER2WT cells (Homo sapiens, UniProt P04626); test: Cell growth inhibition assay (CellTiterGlo), BaF3_HER2WT; format: cell-based; conditions: 3-day treatment, CellTiterGlo, read-out: Cell growth inhibition activity, HER2 WT
BaF3_HER2YVMA cells = BaF3_HER2YVMA cells (Homo sapiens, UniProt P04626, DUP772-775, cells depend on it); test: Cell growth inhibition assay (CellTiterGlo), BaF3_HER2YVMA; format: cell-based; conditions: 3-day treatment, CellTiterGlo, read-out: Cell growth inhibition activity, HER2 - YVMA
BaF3_EGFRWT cells = BaF3_EGFRWT cells (Homo sapiens, UniProt P00533); test: Cell growth inhibition assay (CellTiterGlo), BaF3_EGFRWT; format: cell-based; conditions: 3-day treatment, CellTiterGlo, read-out: Cell growth inhibition activity, EGFR WT

T1 sequence (P04626 23-1255): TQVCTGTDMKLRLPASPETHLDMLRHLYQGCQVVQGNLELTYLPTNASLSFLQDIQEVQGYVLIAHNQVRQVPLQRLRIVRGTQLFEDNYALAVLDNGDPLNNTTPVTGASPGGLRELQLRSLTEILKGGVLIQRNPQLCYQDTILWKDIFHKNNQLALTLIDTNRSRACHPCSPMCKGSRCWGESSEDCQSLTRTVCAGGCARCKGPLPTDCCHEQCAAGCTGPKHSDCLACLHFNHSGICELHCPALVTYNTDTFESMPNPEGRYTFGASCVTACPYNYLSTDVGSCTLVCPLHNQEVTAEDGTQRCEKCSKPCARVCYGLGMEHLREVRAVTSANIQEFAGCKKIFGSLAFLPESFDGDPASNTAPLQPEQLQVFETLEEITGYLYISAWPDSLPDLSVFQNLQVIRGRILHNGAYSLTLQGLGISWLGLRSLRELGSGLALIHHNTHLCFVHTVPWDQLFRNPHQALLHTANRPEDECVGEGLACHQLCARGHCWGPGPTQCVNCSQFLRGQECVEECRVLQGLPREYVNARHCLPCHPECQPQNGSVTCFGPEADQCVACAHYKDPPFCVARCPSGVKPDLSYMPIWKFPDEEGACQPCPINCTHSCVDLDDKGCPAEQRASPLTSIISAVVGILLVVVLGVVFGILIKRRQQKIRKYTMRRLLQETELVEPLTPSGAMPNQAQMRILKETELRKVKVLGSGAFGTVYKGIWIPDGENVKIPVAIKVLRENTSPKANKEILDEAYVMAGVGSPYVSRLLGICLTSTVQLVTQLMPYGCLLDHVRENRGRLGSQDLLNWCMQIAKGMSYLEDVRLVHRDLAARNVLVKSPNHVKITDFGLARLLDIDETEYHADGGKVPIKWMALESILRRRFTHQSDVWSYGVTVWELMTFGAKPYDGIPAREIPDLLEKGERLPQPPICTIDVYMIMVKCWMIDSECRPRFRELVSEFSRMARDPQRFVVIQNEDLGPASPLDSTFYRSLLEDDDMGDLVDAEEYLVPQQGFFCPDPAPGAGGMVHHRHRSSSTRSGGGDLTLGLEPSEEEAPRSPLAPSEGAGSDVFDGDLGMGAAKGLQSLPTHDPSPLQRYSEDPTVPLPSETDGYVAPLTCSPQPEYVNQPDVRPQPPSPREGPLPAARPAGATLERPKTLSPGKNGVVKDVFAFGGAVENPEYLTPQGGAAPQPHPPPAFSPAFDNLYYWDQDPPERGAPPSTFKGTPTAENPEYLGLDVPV
T3 sequence (P00533 25-1210): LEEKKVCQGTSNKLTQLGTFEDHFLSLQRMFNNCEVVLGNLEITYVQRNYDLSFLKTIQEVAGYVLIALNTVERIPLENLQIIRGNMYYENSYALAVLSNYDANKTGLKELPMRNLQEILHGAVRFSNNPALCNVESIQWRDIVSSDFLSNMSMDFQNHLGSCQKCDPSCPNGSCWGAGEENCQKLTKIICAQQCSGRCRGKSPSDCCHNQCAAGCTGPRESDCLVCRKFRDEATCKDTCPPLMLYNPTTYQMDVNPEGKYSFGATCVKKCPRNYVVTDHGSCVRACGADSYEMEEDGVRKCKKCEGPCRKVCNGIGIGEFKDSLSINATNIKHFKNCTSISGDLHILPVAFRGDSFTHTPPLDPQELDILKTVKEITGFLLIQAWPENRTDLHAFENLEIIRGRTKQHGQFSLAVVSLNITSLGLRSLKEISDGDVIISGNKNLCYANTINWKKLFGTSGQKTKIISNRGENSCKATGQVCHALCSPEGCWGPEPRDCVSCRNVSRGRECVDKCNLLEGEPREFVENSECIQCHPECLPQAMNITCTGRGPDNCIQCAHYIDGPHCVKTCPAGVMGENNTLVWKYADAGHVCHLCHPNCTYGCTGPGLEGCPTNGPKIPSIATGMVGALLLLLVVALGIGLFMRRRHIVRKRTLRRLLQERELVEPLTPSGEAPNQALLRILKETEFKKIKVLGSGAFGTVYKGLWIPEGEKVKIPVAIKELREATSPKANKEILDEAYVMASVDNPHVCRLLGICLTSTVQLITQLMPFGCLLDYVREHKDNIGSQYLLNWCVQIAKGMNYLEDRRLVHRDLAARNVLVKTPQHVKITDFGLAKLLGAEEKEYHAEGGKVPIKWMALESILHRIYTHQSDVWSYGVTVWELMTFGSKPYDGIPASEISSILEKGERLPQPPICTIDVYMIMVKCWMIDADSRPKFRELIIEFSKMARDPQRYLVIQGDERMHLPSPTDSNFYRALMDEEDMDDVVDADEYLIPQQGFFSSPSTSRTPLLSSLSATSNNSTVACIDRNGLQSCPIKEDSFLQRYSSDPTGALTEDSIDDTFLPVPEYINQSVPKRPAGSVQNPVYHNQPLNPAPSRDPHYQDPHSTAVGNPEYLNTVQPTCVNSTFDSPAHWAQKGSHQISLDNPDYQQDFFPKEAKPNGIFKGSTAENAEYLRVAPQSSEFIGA
BaF3_HER2YVMA cells, sequence (P04626 with tags, fused parts or gaps DUP772-775): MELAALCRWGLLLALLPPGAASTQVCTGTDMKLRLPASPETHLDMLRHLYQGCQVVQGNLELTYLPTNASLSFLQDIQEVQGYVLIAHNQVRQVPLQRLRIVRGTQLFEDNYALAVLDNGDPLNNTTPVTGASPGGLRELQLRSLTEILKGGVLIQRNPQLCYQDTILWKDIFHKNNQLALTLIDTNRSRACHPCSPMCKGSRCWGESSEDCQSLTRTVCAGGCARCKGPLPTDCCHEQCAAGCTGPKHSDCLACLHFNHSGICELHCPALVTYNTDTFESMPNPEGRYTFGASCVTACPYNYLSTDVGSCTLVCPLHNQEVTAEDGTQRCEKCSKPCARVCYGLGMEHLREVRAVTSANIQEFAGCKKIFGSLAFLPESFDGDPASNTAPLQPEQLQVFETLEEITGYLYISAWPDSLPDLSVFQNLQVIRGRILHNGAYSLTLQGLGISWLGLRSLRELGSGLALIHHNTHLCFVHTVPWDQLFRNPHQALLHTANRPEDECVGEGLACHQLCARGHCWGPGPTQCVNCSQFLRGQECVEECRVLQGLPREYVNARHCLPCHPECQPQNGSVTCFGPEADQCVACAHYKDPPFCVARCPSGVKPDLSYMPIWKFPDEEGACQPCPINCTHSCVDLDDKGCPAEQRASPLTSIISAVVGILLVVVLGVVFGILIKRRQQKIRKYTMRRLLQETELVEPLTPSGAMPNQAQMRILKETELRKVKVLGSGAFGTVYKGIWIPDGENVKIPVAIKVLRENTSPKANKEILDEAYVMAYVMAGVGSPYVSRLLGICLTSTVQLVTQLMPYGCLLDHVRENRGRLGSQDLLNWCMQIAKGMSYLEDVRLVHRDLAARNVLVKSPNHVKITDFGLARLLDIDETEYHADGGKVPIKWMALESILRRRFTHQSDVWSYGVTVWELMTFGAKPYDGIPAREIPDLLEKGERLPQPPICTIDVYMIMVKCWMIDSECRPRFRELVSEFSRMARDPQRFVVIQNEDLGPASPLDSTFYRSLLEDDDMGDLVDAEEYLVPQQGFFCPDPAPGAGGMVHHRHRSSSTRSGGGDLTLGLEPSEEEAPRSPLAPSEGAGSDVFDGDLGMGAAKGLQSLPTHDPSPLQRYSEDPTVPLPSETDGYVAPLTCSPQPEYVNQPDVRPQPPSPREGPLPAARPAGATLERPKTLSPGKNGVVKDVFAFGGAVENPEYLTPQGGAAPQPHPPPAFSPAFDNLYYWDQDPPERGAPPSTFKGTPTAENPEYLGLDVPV
BaF3_HER2WT cells, sequence (P04626 whole entry, change not shown): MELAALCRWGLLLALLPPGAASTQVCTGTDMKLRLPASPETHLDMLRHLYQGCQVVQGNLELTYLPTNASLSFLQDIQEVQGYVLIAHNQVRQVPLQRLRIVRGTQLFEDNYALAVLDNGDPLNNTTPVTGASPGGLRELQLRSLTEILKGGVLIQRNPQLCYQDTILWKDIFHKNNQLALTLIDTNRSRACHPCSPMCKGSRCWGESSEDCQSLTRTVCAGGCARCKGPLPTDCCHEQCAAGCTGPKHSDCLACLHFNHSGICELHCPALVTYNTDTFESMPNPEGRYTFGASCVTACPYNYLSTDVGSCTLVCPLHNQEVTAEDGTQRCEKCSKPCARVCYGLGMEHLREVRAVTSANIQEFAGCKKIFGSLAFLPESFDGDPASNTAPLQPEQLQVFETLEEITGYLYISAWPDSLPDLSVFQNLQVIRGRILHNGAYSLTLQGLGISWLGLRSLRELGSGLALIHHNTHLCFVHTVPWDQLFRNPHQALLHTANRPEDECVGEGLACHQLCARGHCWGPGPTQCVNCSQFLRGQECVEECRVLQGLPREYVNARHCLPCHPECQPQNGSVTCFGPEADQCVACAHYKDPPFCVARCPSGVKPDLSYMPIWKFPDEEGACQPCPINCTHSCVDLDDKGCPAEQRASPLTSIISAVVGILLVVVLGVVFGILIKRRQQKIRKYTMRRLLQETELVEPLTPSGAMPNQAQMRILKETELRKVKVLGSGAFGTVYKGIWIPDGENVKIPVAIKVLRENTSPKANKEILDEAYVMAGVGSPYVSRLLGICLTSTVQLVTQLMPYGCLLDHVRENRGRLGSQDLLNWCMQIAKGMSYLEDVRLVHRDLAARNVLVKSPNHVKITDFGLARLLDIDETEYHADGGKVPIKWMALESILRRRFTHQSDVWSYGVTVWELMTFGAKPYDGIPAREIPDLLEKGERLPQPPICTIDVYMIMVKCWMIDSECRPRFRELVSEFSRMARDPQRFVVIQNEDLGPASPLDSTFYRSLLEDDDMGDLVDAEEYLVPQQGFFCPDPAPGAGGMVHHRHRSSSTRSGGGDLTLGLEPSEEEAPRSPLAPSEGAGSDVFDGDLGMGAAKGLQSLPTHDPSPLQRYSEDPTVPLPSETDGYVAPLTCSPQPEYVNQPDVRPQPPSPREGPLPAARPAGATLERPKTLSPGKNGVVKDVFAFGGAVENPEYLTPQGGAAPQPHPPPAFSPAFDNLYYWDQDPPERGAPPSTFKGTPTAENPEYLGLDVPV

| SMILES | IC50 (wtERBB2 (Her2 WT)) [µM] | IC50 [1] [µM] | IC50 (wtEGFR) [µM] | GI50 (BaF3_HER2WT cells) [µM] | GI50 (BaF3_HER2YVMA cells) [µM] | GI50 (BaF3_EGFRWT cells) [µM] |
| --- | --- | --- | --- | --- | --- | --- |
| Cc1cc(Nc2c(C#N)cnn3ccc(C4CN(C(=O)/C=C/CN(C)C)C4)c23)ccc1Oc1ccn2ncnc2c1 [Example 86, (E)-4-((4-([1,2,4]triazolo[1,5-a]pyridin-7-yloxy)-3-methylphenyl)amino)-5-(1-(4-(dimethylamino)-but-2-enoyl)azetidin-3-yl)pyrrolo[1,2-b]pyridazine-3-carbonitrile] | 1.5 to 5 | 1.5 to 5 | 1.5 to 5 | 1.5 to 5 | > 5 | 1.5 to 5 |
| Cc1cc(Nc2ncnn3cnc(C4CCN(C(=O)/C=C/CN(C)C)CC4)c23)ccc1Oc1ccn2ncnc2c1 [Example 88, (E)-1-(4-(4-((4-([1,2,4]triazolo[1,5-a]pyridin-7-yloxy)-3-methylphenyl)amino)imidazo[5,1-f][1,2,4]triazin-5-yl)piperidin-1-yl)-4-(dimethylamino)but-2-en-1-one] | 0.2 to 0.5 | 0.5 to 1.5 | 1.5 to 5 | 0.5 to 1.5 | 1.5 to 5 | 1.5 to 5 |
| CN(C)C/C=C/C(=O)N1CC(c2ccn3ncnc(Nc4cnc(Oc5cccc(C(F)(F)F)c5)c(Cl)c4)c23)C1 [Example 90, (E)-1-(3-(4-((5-chloro-6-(3-(trifluoromethyl)phenoxy)pyridin-3-yl)amino)pyrrolo[2,1-f][1,2,4]triazin-5-yl)azetidin-1-yl)-4-(dimethylamino)but-2-en-1-one] | 1.5 to 5 | 1.5 to 5 | 1.5 to 5 | 1.5 to 5 | 1.5 to 5 | 1.5 to 5 |
| Cc1cc(Nc2ncnn3ccc(C4CN(C(=O)/C=C/CN5CCC5)C4)c23)ccc1Oc1ccn2ncnc2c1 [Example 102, (E)-1-(3-(4-((4-([1,2,4]triazolo[1,5-a]pyridin-7-yloxy)-3-methylphenyl)amino)pyrrolo[2,1-f][1,2,4]triazin-5-yl)azetidin-1-yl)-4-(azetidin-1-yl)but-2-en-1-one] |  | < 0.2 | 1.5 to 5 | 0.5 to 1.5 | 1.5 to 5 | 1.5 to 5 |
| Cc1cc(Nc2ncnn3ccc(C(=O)NCCCN(C)C)c23)ccc1Oc1ccn2ncnc2c1 [Example 178, 4-((4-([1,2,4]triazolo[1,5-a]pyridin-7-yloxy)-3-methylphenyl)amino)-N-(3-(dimethylamino)-propyl)pyrrolo[2,1-f][1,2,4]triazine-5-carboxamide] |  | < 0.2 | 0.5 to 1.5 | 0.2 to 0.5 | 1.5 to 5 | > 5 |

The next lines start with the values.

| IC50 (wtERBB2 (Her2 WT)) [µM] | IC50 [1] [µM] | IC50 (wtEGFR) [µM] | GI50 (BaF3_HER2WT cells) [µM] | GI50 (BaF3_HER2YVMA cells) [µM] | GI50 (BaF3_EGFRWT cells) [µM] | SMILES |
| --- | --- | --- | --- | --- | --- | --- |
| < 0.2 | < 0.2 | 1.5 to 5 | < 0.2 | < 0.2 | 1.5 to 5 | C=CC(=O)NC1CCN(C(=O)c2ccn3ncnc(Nc4ccc(Oc5ccn6ncnc6c5)c(C)c4)c23)C1 (stereo not shown) [Example 4, N-(1-(4-((4-([1,2,4]triazolo[1,5-a]pyridin-7-yloxy)-3-methylphenyl)amino)pyrrolo[2,1-f][1,2,4]triazine-5-carbonyl)pyrrolidin-3-yl)acrylamide] |
|  | 0.2 to 0.5 | 1.5 to 5 | 1.5 to 5 | 1.5 to 5 | 1.5 to 5 | Cc1cc(Nc2ncnn3ccc(-c4cnn(CCNC(=O)/C=C/CN(C)C)c4)c23)ccc1Oc1ccn2ncnc2c1 [Example 103, (E)-N-(2-(4-(4-((4-([1,2,4]triazolo[1,5-a]pyridin-7-yloxy)-3-methylphenyl)amino)pyrrolo[2,1-f][1,2,4]triazin-5-yl)-1H-pyrazol-1-yl)ethyl)-4-(dimethylamino)but-2-enamide] |
|  | < 0.2 | 1.5 to 5 | < 0.2 | 0.2 to 0.5 | 1.5 to 5 | C=CC(=O)N1CCC2(C1)CN(c1ccn3ncnc(Nc4ccc(Oc5ccn6ncnc6c5)c(C)c4)c13)C2 [Example 155, 1-(2-{4-[(3-methyl-4-{[1,2,4]triazolo[1,5-a]pyridin-7-yloxy}phenyl)amino]pyrrolo[2,1-f][1,2,4]triazin-5-yl}-2,6-diazaspiro[3.4]octan-6-yl)prop-2-en-1-one] |
|  | < 0.2 | 0.5 to 1.5 | 0.2 to 0.5 | 1.5 to 5 | 1.5 to 5 | Cc1cc(Nc2ncnn3ccc(N4CC5(CCN(C(=O)/C=C/CN(C)C)C5)C4)c23)ccc1Oc1ccn2ncnc2c1 [Example 156, (2E)-4-(dimethylamino)-1-(2-{4-[(3-methyl-4-{[1,2,4]triazolo[1,5-a]pyridin-7-yloxy}phenyl)amino]pyrrolo[2,1-f][1,2,4]triazin-5-yl}-2,6-diazaspiro[3.4]octan-6-yl)but-2-en-1-one] |
